# Results reported in patent publication US11518763B2 (SCOHIA PHARMA, INC., priority 2018, dated 2022).
# Where two headings read alike, the source gives them in different places.
# Legend:
# [1] = biological target: T1, binding between NRF2 and KEAP1 (biotinylated human KEAP1 protein (Kelch domain), TAMRA-labeled NRF2 peptide) (Homo sapiens, UniProt Q14145); experiment: Measurement of activity of inhibiting NRF2 binding (NRF2-KEAP1 TR-FRET); conditions: for inhibition at 0.1 µM: read-out: NRF2 binding inhibitory activity (at 100 nM)
# T1 construct: biotinylated human KEAP1 protein (Kelch domain); biotin (biotinylated)
# T1 sequence (Q14145 321-609 limits assumed): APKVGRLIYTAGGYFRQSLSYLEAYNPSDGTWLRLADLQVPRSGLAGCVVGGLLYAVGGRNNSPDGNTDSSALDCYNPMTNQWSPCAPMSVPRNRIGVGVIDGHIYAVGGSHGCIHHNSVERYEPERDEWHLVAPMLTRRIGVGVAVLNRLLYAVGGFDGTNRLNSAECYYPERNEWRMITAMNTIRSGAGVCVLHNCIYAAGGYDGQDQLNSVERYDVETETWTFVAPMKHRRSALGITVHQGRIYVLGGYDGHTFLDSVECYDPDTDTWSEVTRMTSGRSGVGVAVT
# Protocol: Test Example 1: Measurement of Activity of Inhibiting NRF2 Binding
# The inhibitory activity of test compounds against the binding between NRF2 and KEAP1 was measured by Time Resolved Fluorescence Resonance Energy Transfer (TR-FRET) method. Into a 384 well plate, 2 μL of a compound, 2 μL of 2 nM solution of biotinylated human KEAP1 protein (Kelch domain), 2 μL of 14 nM solution of TAMRA-labeled NRF2 peptide (TAMRA-Abu(4)-VWYTDIRMRDWM-OH), and 2 μL of 2 nM solution of Tb-labeled streptavidin, all solutions diluted with assay buffer (25 mM HEPES, pH7.5, 150 mM NaCl, 0.01% Tween-20), were added. For some wells, the KEAP1 protein was not added to define control wells. The plate was incubated at room temperature for 60 minutes, and time-resolved fluorescence was measured with a plate reader Envision (manufactured by PerkinElmer). The inhibitory activity for each compound at a compound concentration of 100 nM were calculated as a relative activity value by setting the fluorescence intensity of control wells to which the KEAP1 protein was not added as 100% inhibition, and the fluorescence intensity of wells to which no compound was added as 0%.
# The measurement results according to the method described above (inhibition rate of signal value relative to control at 100 nM of test compound) are shown in Table 3.
# Nqo1 mRNA = experiment: Expression of NRF2-downstream gene Nqo1 mRNA in rat kidney and liver after oral administration; format: in vivo; conditions: 17 h, Kidney, male SD rats, 3 mg/kg oral, about 17 hours after administration, read-out: Nqo1 mRNA expression (fold change vs vehicle)
# Protocol: Test Example 2: Activity of Compound on Expression of NRF2-Downstream Gene in Rat Kidney and Liver
# For the NRF2-downstream gene, Nqol mRNA was examined in regard to the expression level in kidney. Compounds were prepared into 0.5% methylcellulose (MC, METOLOSE, Shin-Etsu Chemical Co., Ltd.) suspensions, and were orally administered to male SD rats (CLEA Japan, Inc.) in a dose of 5 mL/kg. About 17 hours after the administration, the rats were euthanized under anesthesia, and their kidneys and livers were collected. By using an extraction kit, QIAsymphony RNA kit (QIAGEN, catalog number 931636) or RNeasy 96 Kit (QIAGEN, catalog number 74182), total RNA was extracted. From the total RNA thus obtained, cDNA was produced by using a cDNA synthesis kit, Superscript IV VIVO Master Mix (Thermo Fisher Scientific, catalog number 11754-250). By using the cDNA thus obtained with Taqman Fast Advanced Master Mix (Thermo Fisher Scientific, catalog number 4444557) or Platinum Quantitative PCR SuperMix (Thermo Fisher Scientific, catalog number 11743-500), and primers and a probe, the sequences of SEQ ID NO:1. SEQ ID NO:2, and SEQ ID NO: 3, which are shown in Table 4, real-time quantitative PCR was conducted with 7900HT Fast Real-Time PCR Systems or ViiA7 Fast Real-Time PCR Systems (Applied Biosystems). The expression level of Nqol mRNA in each organ of the rat to which the vehicle, 0.5% MC solution, was administered is defined as 1, and the variation is shown in Table 5.
# [2] = inhibition rate relative to control at 100 nM test compound, TR-FRET, 60 min at room temperature
# [3] = inhibition rate relative to control at 100 nM test compound, TR-FRET, 60 min at room temperature, 0.1 µM
"inhibition at 0.1 µM [1, 2] [%]",SMILES,fold induction at 3 mg/kg (Nqo1 mRNA),also measured
60,Cc1ccc(NC(=O)CC2c3ccc4c(c3)CN(CC4)C(=O)c3ccc(cc3)COCCCn3nnc4c(C)c2ccc43)cn1 (stereo not shown) [Example 42],,
99,"Cc1cc2cc(C)c1C(=O)N1CCc3ccc(cc3C1)C(CC(=O)O)c1ccc3c(nnn3CCCOC2)c1C (stereo not shown) [Example 67, [18,30,32-trimethyl-20-oxo-14-oxa-8,9,10,21-tetrazahexacyclo[19.5.3.2^16,19.1^3,7.0^6,10.0^24,28]dotriaconta-1(27),3(32),4,6,8,16,18,24(28),25,30-decaen-2-yl]acetic acid]",,

# Continued, compound first:
SMILES,"inhibition at 0.1 µM [1, 2] [%]",fold induction at 3 mg/kg (Nqo1 mRNA),also measured
"CCc1cc2ccc1C(=O)N1CCc3ccc(cc3C1)C(CC(=O)O)c1ccc3c(nnn3CCCCC2)c1C (racemic) [Example 3, [18-Ethyl-32-methyl-20-oxo-8,9,10,21-tetraazahexacyclo[19.5.3.2^16,19.1^3,7.0^6,10.0^24,28]dotriaconta-1(26),3(32),4,6,8,16,18,24,27,30-decaen-2-yl]acetic acid]",100,4.7,
"Cc1c2ccc3c1nnn3CCCCCc1ccc(c3c1OCC3)C(=O)N1CCc3ccc(cc3C1)C2CC(=O)O (racemic) [Example 4, [33-Methyl-2-oxo-7-oxa-1,15,16,17-tetraazaheptacyclo[22.5.3.2^3,9.1^18,22.0^4,8.0^15,19.0^27,31]pentatriaconta-3,8,16,18(33),19,21,24,26,31,34-decaen-23-yl]acetic acid]",100,6.8,
"Cc1c2ccc3c1nnn3CCCCCc1ccc(c3c1OC(C)(C)C3)C(=O)N1CCc3ccc(cc3C1)C2CC(=O)O (racemic) [Example 5, [6,6,33-Trimethyl-2-oxo-7-oxa-1,15,16,17-tetraazaheptacyclo[22.5.3.2^3,9.1^18,22.0^4,8.0^15,19.0^27,31]pentatriaconta-3,8,16,18(33),19,21,24,26,31,34-decaen-23-yl]acetic acid]",100,3.3,
"Cc1c2ccc3c1nnn3CCCCCc1ccc(c3c1CCO3)C(=O)N1CCc3ccc(cc3C1)C2CC(=O)O (racemic) [Example 7, [33-Methyl-2-oxo-5-oxa-1,15,16,17-tetraazaheptacyclo[22.5.3.2^3,9.1^18,22.0^4,8.0^15,19.0^27,31]pentatriaconta-3,8,16,18(33),19,21,24,26,31,34-decaen-23-yl]acetic acid]",100,4.3,
"Cc1c2ccc3c1nnn3CCCCCc1ccc(c(Cl)c1)C(=O)N1CCc3ccc(cc3C1)C2CC(=O)O (racemic) [Example 9, [18-Chloro-32-methyl-20-oxo-8,9,10,21-tetraazahexacyclo[19.5.3.2^16,19.1^3,7.0^6,10.0^24,28]dotriaconta-1(26),3(32),4,6,8,16,18,24,27,30-decaen-2-yl]acetic acid]",100,5.5,
"Cc1c2ccc3c1nnn3CCCCCc1ccc(c(F)c1)C(=O)N1CCc3ccc(cc3C1)C2CC(=O)O (racemic) [Example 10, [18-Fluoro-32-methyl-20-oxo-8,9,10,21-tetraazahexacyclo[19.5.3.2^16,19.1^3,7.0^6,10.0^24,28]dotriaconta-1(26),3(32),4,6,8,16,18,24,27,30-decaen-2-yl]acetic acid]",100,5.9,
"CCOC(=O)CC1c2ccc3c(c2)CN(CC3)C(=O)c2ccc(cc2)COCCCn2nnc3c(C)c1ccc32 (stereo not shown) [Example 36, Ethyl [32-methyl-20-oxo-14-oxa-8,9,10,21-tetraazahexacyclo[19.5.3.2^16,19.1^3,7.0^6,10.0^24,28]dotriaconta-1(26),3(32),4,6,8,16,18,24,27,30-decaen-2-yl]acetate]",15,,
"Cc1ccc(NC(=O)CC2c3ccc4c(c3)CN(CC4)C(=O)c3ccc(cc3)CCCCCn3nnc4c(C)c2ccc43)cn1 (stereo not shown) [Example 38, 2-[32-Methyl-20-oxo-8,9,10,21-tetraazahexacyclo[19.5.3.2^16,19.1^3,7.0^6,10.0^24,28]dotriaconta-1(26),3(32),4,6,8,16,18,24,27,30-decaen-2-yl]-N-(6-methylpyridin-3-yl)acetamide]",79,,
Cc1c2ccc3c1nnn3CCCCCc1ccc(cc1)C(=O)N1CCc3ccc(cc3C1)C2CC(=O)Nc1cccnc1 (stereo not shown) [Example 39],97,,
"Cc1c2ccc3c1nnn3CCCOCc1ccc(cc1)C(=O)N1CCc3ccc(cc3C1)C2CC(=O)OC(C)OC(=O)OC1CCCCC1 (stereo not shown) [Example 40, 1-{[(Cyclohexyloxy)carbonyl]oxy}ethyl[32-methyl-20-oxo-14-oxa-8,9,10,21-tetraazahexacyclo[19.5.3.2^16,19.1^3,7.0^6,10.0^24,28]dotriaconta-1(26),3(32),4,6,8,16,18,24,27,30-decaen-2-yl]acetate]",82,,
"Cc1c2ccc3c1nnn3CCCOCc1ccc(cc1)C(=O)N1CCc3ccc(cc3C1)C2CC(=O)O (stereo not shown) [Example 41, Sodium [32-methyl-20-oxo-14-oxa-8,9,10,21-tetraazahexacyclo[19.5.3.2^16,19.1^3.7.0^6,10.0^24,28]dotriaconta-1(26),3(32),4,6,8,16,18,24,27,30-decaen-2-yl]acetate]",,,inhibition at 0.1 µM [1]: 100%
"Cc1c2ccc3c1nnn3CCCOCc1ccc(cc1)C(=O)N1CCc3ccc(cc3C1)C2C(C)(C)C(=O)O (stereo not shown) [Example 56, 2-methyl-2-[32-methyl-20-oxo-14-oxa-8,9,10,21-tetrazahexacyclo[19.5.3.2^16,19.1^3,7.0^6,10.0^24,28]dotriaconta-1(27),3(32),4,6,8,16,18,24(28),25,30-decaen-2-yl]propanoic acid]",,,"NRF2 binding inhibitory activity (at 100 nM) [1, 3]: 99%"
"Cc1cc2cc(C)c1C(=O)N1CCc3ccc(cc3C1)C(C(C)(C)C(=O)O)c1ccc3c(nnn3CCCOC2)c1C (stereo not shown) [Example 59, 2-methyl-2-[18,30,32-trimethyl-20-oxo-14-oxa-8,9,10,21-tetrazahexacyclo[19.5.3.2^16,19.1^3,7.0^6,10.0^24,28]dotriaconta-1(27),3(32),4,6,8,16(31),17,19(30),24(28),25-decaen-2-yl]propanoic acid]",,,"NRF2 binding inhibitory activity (at 100 nM) [1, 2]: 100%"
"Cc1c2ccc3c1nnn3CCCOCc1cc(Cl)c(c(Cl)c1)C(=O)N1CCc3ccc(cc3C1)C2C(C)(C)C(=O)O (stereo not shown) [Example 61, 2-[18,30-dichloro-32-methyl-20-oxo-14-oxa-8,9,10,21-tetrazahexacyclo[19.5.3.2^16,19.1^3,7.0^6,10.0^24,28]dotriaconta-1(27),3(32),4,6,8,16,18,24(28),25,30-decaen-2-yl]-2-methylpropanoic acid]",,,"NRF2 binding inhibitory activity (at 100 nM) [1, 3]: 99%"
"Cc1c2ccc3c1nnn3CCCCCc1ccc(cc1)C(=O)N1CCc3ccc(cc3C1)C2C(C)(C)C(=O)O (stereo not shown) [Example 63, 2-methyl-2-[32-methyl-20-oxo-8,9,10,21-tetrazahexacyclo [19.5.3.2^16,19.1^3,7.0^6,10.0^24,28]dotriaconta-1(27),3(32),4,6,8,16(31),17,19(30),24(28),25-decaen-2-yl]propanoic acid]",,,"NRF2 binding inhibitory activity (at 100 nM) [1, 3]: 46%"
"Cc1c2ccc3c1nnn3CCCCOc1cc(Cl)c(c(Cl)c1)C(=O)N1CCc3ccc(cc3C1)C2C(C)(C)C(=O)O (stereo not shown) [Example 66, 2-[18,30-dichloro-32-methyl-20-oxo-15-oxa-8,9,10,21-tetrazahexacyclo[19.5.3.2^16,19.1^3,7.0^6,10.0^24,28]dotriaconta-1(27),3(32),4,6,8,16(31),17,19(30),24(28),25-decaen-2-yl]-2-methylpropanoic acid]",,,"NRF2 binding inhibitory activity (at 100 nM) [1, 3]: 94%"
"Cc1cc2cc(C)c1C(=O)N1CCc3ccc(cc3C1)C(CC(=O)O)c1ccc3c(nnn3CCCOC2)c1C (stereo not shown) [Example 68, [18,30,32-trimethyl-20-oxo-14-oxa-8,9,10,21-tetrazahexacyclo[19.5.3.2^16,19.1^3,7.0^6,10.0^24,28]dotriaconta-1(27),3(32),4,6,8,16,18,24(28),25,30-decaen-2-yl]acetic acid]",,,"NRF2 binding inhibitory activity (at 100 nM) [1, 3]: 93%"
